Counter-ions that a name gives are not always drawn.
How the values were obtained:
[1] = tested on: Alcohol Dehydrogenase ADH7; assay: Retrospective case-control study of abacavir hypersensitivity: ADH7 polymorphism; assay type: in vivo, human; conditions: ADH7-C94T, Table 12
Excerpt: Informed consent was obtained. Subjects were classified as either ‘case’ or ‘control’. […] Blood samples were collected into appropriate blood collection tubes.

HLA-DR = assay: Retrospective case-control study of abacavir hypersensitivity: HLA-DR typing; assay type: in vivo, human; conditions: Table 13
Excerpt: Informed consent was obtained. Subjects were classified as either ‘case’ or ‘control’. The following criteria were used to identify cases: • 1.
Blood samples were collected into appropriate blood collection tubes.
Of these, the difference in frequency of HLA-B57 was the most significant (p<0.0001). HLA-B57 was present in 39 of 84 (46%) cases versus 4 of 113 (4%) controls.

## Nc1nc(NC2CC2)c2ncn([C@H]3C=C[C@@H](CO)C3)c2n1 [abacavir, (cis)-4-[2-amino-6-(cyclopropylamino)-9H-purin-9-yl]-2-cyclopentene-1-methanol sulfate (salt) (2:1)]
[1]; A1 = C
  Controls carrying marker, %: 17%
  HSR cases carrying marker, %: 5%
[1]; A2 = T
  Controls carrying marker, %: 84%
  HSR cases carrying marker, %: 96%
HLA-DR; HLA-DRB01
  Controls carrying marker, %: 21 (21%)
  HSR cases carrying marker, %: 10%
HLA-DR; HLA-DRB03
  Controls carrying marker, %: 18 (18%)
  HSR cases carrying marker, %: 3%
HLA-DR; HLA-DRB07
  Controls carrying marker, %: 21 (21%)
  HSR cases carrying marker, %: 38%
